Active and inactive are the calls of the source. No cut-off for these calls is given here.
Assays:
[1] = target: T1, Tumor necrosis factor receptor superfamily member 16 (Rattus norvegicus) (UniProt P07174); assay: Binding affinity to p75NTR in Long-Evans rat brain at 300 uCi incubated for 40 mins followed by compound wash out for 10 secs and addition of compound for 2 hrs by autoradiographic analysis; assay type: tissue-based; settings: tested as the 11C-labelled form
T1 sequence (whole entry): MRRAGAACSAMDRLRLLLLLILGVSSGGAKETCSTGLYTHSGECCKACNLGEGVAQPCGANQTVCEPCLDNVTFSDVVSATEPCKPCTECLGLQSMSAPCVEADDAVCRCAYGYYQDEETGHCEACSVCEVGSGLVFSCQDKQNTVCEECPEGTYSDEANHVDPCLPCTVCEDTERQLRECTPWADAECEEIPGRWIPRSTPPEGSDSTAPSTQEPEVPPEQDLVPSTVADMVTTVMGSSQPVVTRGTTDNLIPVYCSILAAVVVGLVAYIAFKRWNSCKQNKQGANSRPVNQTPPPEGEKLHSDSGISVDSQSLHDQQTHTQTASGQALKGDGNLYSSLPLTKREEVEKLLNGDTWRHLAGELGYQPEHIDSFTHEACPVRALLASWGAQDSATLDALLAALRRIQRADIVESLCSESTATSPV

[2] = species: Mus musculus; assay: Effect on carbachol-mediated persistant firing of entorhinal cortex in p75NTR deficient C57BL/6 mouse brain at 10 nM after 15 mins by current-clamp technique; assay type: functional
[3] = Hydrophilicity, logD of the compound; assay type: physicochemical; settings: octanol/water
[4] = target: T2, Tumor necrosis factor receptor superfamily member 16 (Mus musculus) (UniProt Q9Z0W1); assay: (§1) Activation of p75NTR in C57BL/6 mouse brain assessed as suppression of carbachol-mediated persistant firing of entorhinal cortex after 15 mins by current-clamp technique; assay type: tissue-based
T2 sequence (whole entry): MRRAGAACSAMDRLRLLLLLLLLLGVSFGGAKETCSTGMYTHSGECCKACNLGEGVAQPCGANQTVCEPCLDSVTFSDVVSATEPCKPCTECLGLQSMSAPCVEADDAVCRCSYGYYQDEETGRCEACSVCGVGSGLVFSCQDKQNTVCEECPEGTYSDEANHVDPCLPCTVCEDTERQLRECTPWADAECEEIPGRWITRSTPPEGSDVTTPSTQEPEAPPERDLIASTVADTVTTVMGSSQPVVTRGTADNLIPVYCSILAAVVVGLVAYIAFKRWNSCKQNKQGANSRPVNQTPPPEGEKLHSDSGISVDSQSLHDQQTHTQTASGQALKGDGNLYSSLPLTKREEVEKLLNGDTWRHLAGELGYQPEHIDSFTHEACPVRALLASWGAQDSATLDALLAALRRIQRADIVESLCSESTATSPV

[5] = target: T3, Tumor necrosis factor receptor superfamily member 16 (Mus musculus, UniProt Q9Z0W1); assay: as §1; assay type: tissue-based
T3 sequence (Q9Z0W1 whole entry): T2 sequence (whole entry)

[6] = Drug uptake in Long-Evans rat brain at 0.4 mCi, iv through bolus administration by PET analysis; assay type: ADME, organism-based; settings: in vivo
[7] = Drug uptake in C57BL/6 mouse brain incubated for 40 mins followed by compound wash out for 10 secs and addition of compound for 30 to 60 mins in presence of 10 uM LM11A-24 by autoradiographic analysis; assay type: ADME, tissue-based
[8] = Drug uptake in C57BL/6 mouse DRG neurons incubated for 40 mins measured after 30 to 60 mins by autoradiographic analysis; assay type: ADME, cell-based; settings: drg neuron
[9] = Drug uptake in C57BL/6 mouse brain incubated for 40 mins followed by compound wash out for 10 secs and addition of compound for 30 to 60 mins by autoradiographic analysis; assay type: ADME, tissue-based
[10] = Drug uptake in C57BL/6 mouse brain incubated for 40 mins followed by compound wash out for 10 secs and addition of compound for 30 to 60 mins in presence of 400 uM LM11A-24 by autoradiographic analysis; assay type: ADME, tissue-based
[11] = Drug uptake in C57BL/6 mouse DRG neurons incubated for 40 mins followed by compound wash out for 10 secs and addition of compound for 30 to 60 mins by autoradiographic analysis; assay type: ADME, cell-based; settings: drg neuron
[12] = Drug uptake in Long-Evans rat bladder at 0.4 mCi, iv through bolus administration by PET analysis; assay type: ADME, organism-based, Urinary bladder; settings: in vivo

logD [3] | Drug uptake [6] | Drug uptake [7] | Drug uptake [8] | Drug uptake [9] | Drug uptake [10] | Drug uptake [11] | Drug uptake [12] | Structure (SMILES) | Activity [1] | Activity [2] | Activity [4] | EC50 [5]
-3 |  |  |  |  |  |  |  | CN(C)CCCNC(=O)Cn1cnc2c1c(=O)n(C)c(=O)n2C | inactive | inactive | Dose-dependent effect | < 10 nM
 | Not Active | Active | Not Active | Active | Active | Not Active | Active | CN([11CH3])CCCNC(=O)Cn1cnc2c1c(=O)n(C)c(=O)n2C |  |  |  | 

From ChEMBL document CHEMBL4431381 (Bioorg Med Chem, 2016)
